Source: the supplement of paper PMC4862054

Columns and labels:
Conditions in all cases: incubation time: 72 h
[1] = tested on: DU-4475; test: normalised response (% of control), CellTiter-Glo; higher = more viable cells (100 = DMSO, 0 = benzethonium chloride kill control)
Procedure, shortened: (§1)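 A 20 µl suspension of breast cancer cells was seeded into each well of 384-well plates containing compound at 5 concentrations in 10-fold steps over a compound-specific 10,000-fold range. After 72 h incubation, CellTox Green fluorescence (485/520 nm) was read first, and CellTiter-Glo luminescence was read after 10 min at room temperature. Each plate was normalised against 0.1 % DMSO (100) and a positive kill control (0), and each value is the normalised signal at one concentration.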

[2] = tested on: MDA-MB-436; test: as above
Procedure, shortened: as §1

[3] = tested on: MDA-MB-453; test: as above
Procedure, shortened: as §1

[4] = tested on: CAL-51; test: as above
Procedure, shortened: as §1

[5] = tested on: HCC1599; test: as above
Procedure, shortened: as §1

[6] = tested on: MFM-223; test: as above
Procedure, shortened: as §1

[7] = tested on: HCC1937; test: as above
Procedure, shortened: as §1

[8] = tested on: CAL-148; test: as above
Procedure, shortened: as §1

[9] = tested on: Hs578T; test: as above
Procedure, shortened: as §1

[10] = tested on: BT-474; test: as above
Procedure, shortened: as §1

[11] = tested on: CAL-120; test: as above
Procedure, shortened: as §1

[12] = tested on: SK-BR-3; test: as above
Procedure, shortened: as §1

[13] = tested on: MDA-MB-231; test: as above
Procedure, shortened: as §1

[14] = tested on: HCC1143; test: as above
Procedure, shortened: as §1

[15] = tested on: BT-549; test: as above
Procedure, shortened: as §1

[16] = tested on: CAL-85-1; test: as above
Procedure, shortened: as §1

[17] = tested on: MDA-MB-468; test: as above
Procedure, shortened: as §1

[18] = tested on: MCF-10A; test: as above
Procedure, shortened: as §1

[19] = tested on: HDQ-P1; test: as above
Procedure, shortened: as §1

[20] = tested on: DU-4475; test: normalised response (% of control), CellTox Green; higher = less cell death (100 = DMSO, 0 = benzethonium chloride kill control)
Procedure, shortened: as §1

[21] = tested on: MDA-MB-436; test: as above
Procedure, shortened: as §1

[22] = tested on: MDA-MB-453; test: as above
Procedure, shortened: as §1

[23] = tested on: CAL-51; test: as above
Procedure, shortened: as §1

[24] = tested on: HCC1599; test: as above
Procedure, shortened: as §1

[25] = tested on: HCC1937; test: as above
Procedure, shortened: as §1

[26] = tested on: CAL-148; test: as above
Procedure, shortened: as §1

[27] = tested on: Hs578T; test: as above
Procedure, shortened: as §1

[28] = tested on: BT-474; test: as above
Procedure, shortened: as §1

[29] = tested on: CAL-120; test: as above
Procedure, shortened: as §1

[30] = tested on: MDA-MB-231; test: as above
Procedure, shortened: as §1

[31] = tested on: HCC1143; test: as above
Procedure, shortened: as §1

[32] = tested on: BT-549; test: as above
Procedure, shortened: as §1

[33] = tested on: CAL-85-1; test: as above
Procedure, shortened: as §1

[34] = tested on: MDA-MB-468; test: as above
Procedure, shortened: as §1

[35] = tested on: MCF-10A; test: as above
Procedure, shortened: as §1

[36] = tested on: HDQ-P1; test: as above
Procedure, shortened: as §1

[37] = tested on: MFM-223; test: as above
Procedure, shortened: as §1

SMILES | normalised response [1] | normalised response [2] | normalised response [3] | normalised response [4] | normalised response [5] | normalised response [6] | normalised response [7] | normalised response [8] | normalised response [9] | normalised response [10] | normalised response [11] | normalised response [12] | normalised response [13] | normalised response [14] | normalised response [15] | normalised response [16] | normalised response [17] | normalised response [18] | normalised response [19] | normalised response [20] | normalised response [21] | normalised response [22] | normalised response [23] | normalised response [24] | normalised response [25] | normalised response [26] | normalised response [27] | normalised response [28] | normalised response [29] | normalised response [30] | normalised response [31] | normalised response [32] | normalised response [33] | normalised response [34] | normalised response [35] | normalised response [36] | normalised response [37]
CN(c1ccccc1CNc1nc(Nc2ccc3c(c2)CC(=O)N3)ncc1C(F)(F)F)S(C)(=O)=O (1000 nM) | 84.8% | 101% | 128% | 53.6% | 107% | 92.3% | 94.5% | 91.1% | 89.1% | 73.2% | 81% | 79.7% | 76.4% | 87.8% | 93.5% | 87.2% | 69% | 63.5% | 84.5% | 97.4% | 104% | 106% | 15.1% | 97.1% | 111% | 96.8% | 65.3% | 101% | 99.7% | 83.4% | 71.2% | 116% | 99.4% | 150% | 101% |  | 
Nc1nccc(-c2c(-c3ccc(F)cc3)ncn2C2CCCCC2)n1 (1000 nM) | 103% | 103% | 96.6% | 97% | 104% | 105% | 97.3% | 97.5% | 104% | 98.9% | 108% | 95.4% | 98.7% | 101% | 101% | 96.7% | 68.9% | 103% | 106% | 107% | 81.5% | 107% | 86.2% | 100% | 91.5% | 98.4% |  | 102% | 107% | 84% | 120% | 109% | 104% | 67.2% | 109% | 103% | 
CS(=O)(=O)CCNCc1ccc(-c2ccc3ncnc(Nc4ccc(OCc5cccc(F)c5)c(Cl)c4)c3c2)o1 [Lapatinib] (100 nM) | 99.1% | 103% | 92.2% | 90.5% | 97.2% | 104% | 94.6% | 98.3% | 115% | 99.9% | 102% | 50.2% | 108% | 103% | 104% | 96.1% | 102% | 79.1% | 83.9% | 98.3% | 91.4% | 92.5% | 101% | 105% | 118% | 77.7% |  | 96% | 96.9% | 115% |  | 126% | 96.8% | 116% | 109% | 92.8% | 101%
COC(=O)C[C@](O)(CCCC(C)(C)O)C(=O)O[C@@H]1C(OC)=C[C@]23CCCN2CCc2cc4c(cc2[C@H]13)OCO4 [Omacetaxine] (1000 nM) | 25% | 17.2% | 48.8% | 10.1% | 8.63% | 14.4% | 25.8% | 32% | 2% | 26.4% | 26.9% | 12.6% | 9.47% | 14.5% | 7.92% | 0.88% | 4.18% | 11.3% | 23.1% | 97.7% | 104% | 115% | 111% | 85.7% | 24.1% | 93.1% | 60.2% | 93.7% | 91.4% | 66.4% | 108% | 52.6% | 4.24% | 67.1% | 33.5% | 74.8% | 36%
Cc1cc(C(C)Nc2ccccc2)c2nc(N3CCOCC3)cc(=O)n2c1 (stereo not given) [TGX-221] (1000 nM) | 95.7% | 89.4% | 97.2% | 102% | 106% | 95% | 86.9% | 98.1% | 93.7% | 83.3% | 94.8% | 91.7% | 89.7% | 89.4% | 88.8% | 91.7% | 77.8% | 93.8% | 88% | 96.2% | 90.5% | 105% | 105% | 101% | 102% | 90.8% | 97.5% | 95.7% | 99.8% | 110% | 90.6% | 92.6% | 106% | 113% | 105% | 103% | 80.3%
COc1cc(Nc2ncc(F)c(Nc3ccc4c(n3)NC(=O)C(C)(C)O4)n2)cc(OC)c1OC [Tamatinib] (1000 nM) | 103% | 104% | 105% | 92.1% | 106% | 104% | 102% | 95.6% | 101% | 96.6% | 97.2% | 104% | 101% | 104% | 77.5% | 95.1% | 88.7% | 104% | 98.4% | 100% | 94.2% | 103% | 89.9% | 103% |  | 102% | 108% | 99.7% | 105% | 107% | 119% | 90.7% | 103% |  | 105% | 105% | 103%
C[C@@H]1CCN(C(=O)CC#N)C[C@@H]1N(C)c1ncnc2[nH]ccc12 [Tofacitinib] (500 nM) | 103% | 104% | 94.5% | 75.8% | 138% | 108% | 100% | 109% | 99.8% | 107% | 98.6% | 107% | 107% | 99.6% | 98.4% | 106% | 104% | 97.5% | 104% | 101% | 82.4% | 101% | 103% | 112% | 132% | 108% | 115% | 104% | 102% | 116% | 98% | 129% | 102% | 137% | 64.1% | 102% | 103%
CCCC(CCC)C(=O)O [Valproic acid] (100000 nM) | 94% | 101% | 91.1% | 83.5% | 94.1% | 99.2% | 103% | 91.4% | 104% | 98.6% | 96.1% | 101% | 98.7% | 101% | 103% | 101% | 97.8% | 101% | 101% | 105% | 109% | 111% | 53.4% | 101% | 86.4% | 85.4% | 63.5% | 98.1% | 107% | 102% | 110% | 95.3% | 107% | 123% | 53% | 75.3% | 99.4%
FC(F)c1nc2ccccc2n1-c1nc(N2CCOCC2)nc(N2CCOCC2)n1 [ZSTK474] (1000 nM) | 87.9% | 56.8% | 40.4% | 49.7% | 79.1% | 55.8% | 69.7% | 69.2% | 45.4% | 70.3% | 65.4% | 35.2% | 61.6% | 73.5% | 42.4% | 49.8% | 58.3% | 47.5% | 51.9% | 102% | 85.9% | 103% | 92.8% | 96.3% | 101% | 89.5% | 104% | 90.7% | 107% | 90.3% | 77.2% | 95.5% | 101% | 79.9% | 57.7% | 49.5% | 71%
